# Laboratory results taken from PMC7463460, “Structure and Antiparasitic Activity Relationship of Alkylphosphocholine Analogues against Leishmania donovani” (Microorganisms, 2020).
# “And” between values parts separate entries of the source, which are not always exact repeats. Identical values can stand only once. Like-named read-outs stand apart in the source and are kept apart here.
# Legend:
# visceral leishmaniasis = conditions: VL, 12 months post-treatment; cited from earlier work
# [1] = system: L. donovani LV82 promastigotes; assay: Luciferase-expressing promastigote assay, strain LV82; type: cell-based, Leishmania donovani; conditions: for Promast: Amast Ratio: LV82; for IC50: Leishmania donovani, 72 h, LV82, 3 days, 25 °C
# Protocol: The anti-leishmanial activity of APC against L. donovani luciferase-expressing promastigotes was determined by adding of the appropriate 100 µL parasite line (10^6 cells/mL) to the wells of a 96-well plate and adding 100 µL medium alone (controls) or 100 µL of APC compound (0.01 µg/mL–6.25 µg/mL, n = 3/treatment). The plate was incubated for 72 h at 25 °C. In combination assays, the additional compound/compounds, at a final concentration of 0.195 or 0.39 µg/mL, was added to the initial APC being tested.
# (§1) Luciferin solution (1 µg/mL in 20 µL medium without FCS) was added to the appropriate wells of the 96-well plate at the end of the experiment and the amount of light emitted/well was measured using a luminometer (Biotek Synergy HT, relative light units) using a wavelength/bandwidth of 440/40 nm, or IVIS® imaging (Spectrum Living Image system®, total flux, photons/sec).
# (§2) The effect of drug treatment on parasite survival was determined by calculating the mean suppression in the light emitted from the drug-treated experimental sample compared to the mean control value and used to calculate the IC50 using Grafit® software (version 5.0, Erithacus Software, East Grinstead, West Sussex, UK). The effect of drug alone on the viability of uninfected macrophages was determined using the same experimental protocol above, but cell viability was determined using an alamar blue colorimetric assay. At the end of the incubation period, cells’ 10 µL resazurin solution (0.02% w/v) was added to control and drug treated cells and the absorbance of samples was read at 575 and 595 nm. The effect of drug treatment on cell survival, which correlates with the magnitude of dye reduction, was expressed as percentage viability (or alamar blue reduction) and determined using the formula provided in the manufacturer’s protocol % alamar blue reduction=(εoxλ)(Aλ1)−(εoxλ1)(Aλ2)/(εredλ1)(A^′λ2)−(εredλ2)(A^′λ1)x100
# [2] = system: L. donovani LV82 intracellular amastigotes; assay: Intracellular amastigote assay in bone-marrow-derived macrophages, strain LV82; type: cell-based, Leishmania donovani; conditions: for Selectivity Index (SI50): macrophage CC50 / LV82 intracellular amastigote IC50
# Protocol: In the macrophage studies, the method described in previous studies was used as follows. […] It is possible that intracellular macrophage parasites could have been at different developmental stages at 24 h post-infection. […] Therefore, we assumed that the effect of compounds on the amastigote stage rather than the promastigotes stage was determined in in vitro macrophage studies.
# The plate was incubated for a further 24 h, the medium removed, and each well washed with PBS to eliminate non-internalized parasites, which were monitored microscopically. […] Wells with macrophage and with no drug or promastigotes added were used in control experiments.
# as §1
# as §2, with “At the end of the incubation period, cells’ 10 µL resazurin solution (0.02% w/v) was added to control and drug treated cells and the absorbance of samples was read at 575 and 595 nm.” left out
# [3] = Cytotoxicity against uninfected macrophages (alamar blue); type: cell-based, BALB/c mice; conditions: BALB/c, mouse, read-out: Macrophage mean IC50 (CC50) (converted)
# Protocol: as §2
# (§3) In the formula, ελ1 and ελ2 are constants representing the molar extinction coefficient of alamar blue at 575 and 595 nm, respectively, in the oxidized (εox) and reduced (εred) forms. Aλ1, Aλ2 and A’λ1, A’λ2 represent absorbance of test and negative control wells at 575 and 595 nm, respectively. The values of % alamar blue reduction (or % viability) were corrected for background values of negative controls containing medium without cells. Percent viability values were used to calculate the IC50 using Grafit® software (version 5.0).
# [4] = system: bone-marrow-derived macrophages from BALB/c mice; assay: as above; type: cell-based; conditions: 3 days
# Protocol: as §2, §3
# [5] = Leishmania donovani, Macrophage, in Mus musculus, 72 h, LV82, intracellular in BALB/c macrophages, 3 days, 37 °C
# [6] = uninfected bone-marrow-derived macrophages
# [7] = LV82, intracellular in BALB/c macrophages, 3 days, 37 °C
Compound,cure rate (visceral leishmaniasis) [%],Promast: Amast Ratio [1],IC50 [1],"IC50 [2, 5]",Selectivity Index (SI50) [2],"IC50 at 3 days [3, 6]",IC50 at 3 days [3],activity against L. donovani compared to controls ([1]; LV82 promastigotes and amastigotes),"Amastigote mean IC50 [2, 7] [µg/mL]","IC50 [2, 7] [µM]",Macrophage mean IC50 (CC50) [4] [µg/mL],IC50 ([4]; read-out: Macrophage mean IC50 (CC50) (converted)) [µM]
"C[C@@H]1[C@H](O)[C@@H](C)/C=C/C=C/C=C/C=C/C=C/C=C/C=C/[C@H](O[C@@H]2O[C@H](C)[C@@H](O)[C@H](N)[C@@H]2O)C[C@@H]2O[C@](O)(C[C@@H](O)C[C@@H](O)[C@H](O)CC[C@@H](O)C[C@@H](O)CC(=O)O[C@H]1C)C[C@H](O)[C@H]2C(=O)O [AMB, amphotericin B]",93.7,,,,,,,,,,,
"CC(C)CCC(CCC(C)C)OP(=O)([O-])OCC[N+](C)(C)C [APC11PC, 2,8-Dimethyl-5-Nonylphosphocholine]",,>33.60,> 6.25 µg/mL and > 18.6 µM,0.19 µg/mL and 550 nM,335.56,61.9 µg/mL and 185 µM,,,,,,
"C=CCCCCCCCCCOP(=O)([O-])OCC[N+](C)(C)C [APC11UPC, 10-Undecylenyl-1-phosphocholine]",,135.34,1.8 µg/mL and 5.37 µM,0.01 µg/mL and 40 nM,4025.00,54 µg/mL and 161 µM,,,,,,
CCCCCCCCCCCCOP(=O)([O-])OCCCCCC[N+](C)(C)C [APC12P6C],,33.33,33.5 µg/mL and 82.2 µM,1.01 µg/mL and 2.47 µM,14.01,14.1 µg/mL and 34.6 µM,,,,,,
"CCCCCCCCCCCC[N+](C)(C)CCCCCCCCCCCC [DAB, didodecyldimethyl ammonium bromide]",,0.79,0.04 µg/mL and 91 nM,0.06 µg/mL and 119 nM,1503.45,,82.8 µg/mL and 179 µM,,,,,
"CCCCCCCCCCCCOP(=O)(O)O [PO, mono –n-dodecyl phosphate]",,>3.12,> 6.25 µg/mL and > 25.1 µM,> 2 µg/mL and > 8.02 µM,>50.00,100 µg/mL and 401 µM,,inactive,,,,
dodecylamine [DA],,0.18,,,79.88,,,,0.47 ± 0.00,2.54,37.60 ± 0.01,203
